Results published in US6245743A, “Inhibitors of factor Xa” (COR Therapeutics, Inc., priority 1998, dated 2001).
Square brackets hold non-standard residues; d marks the D form. Peptide text beside a SMILES is read from it. * marks the point of attachment. Hydrocinnamoyl = O=C(CCc1ccccc1)*; dCit = NC(=O)NCCC[C@@H](N)C(=O)O; Boc = CC(C)(C)OC(=O)*

Key:
[1] = target: factor Xa (Homo sapiens, UniProt P00742); experiment: Factor Xa amidolytic assay (chromogenic substrate S2765); type: biochemical; details: read-out: Inhibitory Activity (IC50) Factor Xa
[2] = target: prothrombinase complex (Homo sapiens, UniProt P00742); experiment: Prothrombinase inhibition assay, plasma free system (thrombin generation, Chromozym TH); type: biochemical; details: read-out: Inhibitory Activity (IC50) Prothrombinase
[3] = system: rabbit venous thrombosis model; experiment: Rabbit deep vein (venous) thrombosis model; type: in vivo; details: for Hct: mean (SD on next line); for PLT / RBC / WBC: mean±SD
From the text: Rabbits were anesthetized with I.M. injections of Ketamine, Xylazine, and Acepromazine cocktail.

[4] = Cuticle bleeding time model in rabbits; type: in vivo, rabbit; details: 1500 μg/kg+14.85 μg/kg/min, bleeding time experiments
Description: In an ancillary study, a Cuticle Bleeding Time model was used to evaluate the effect of test compounds on bleeding time (BT) measurements in rabbits. The standardized protocol involved anesthesia and catheterization of rabbits as previously described in this Example 43. To measure BT, a toe nail was cut 5 mm from the base of the cuticle with a canine nail trimming device. Time until cessation of bleeding was recorded by wicking the blood on to BT blotting paper in 30 second intervals. Test compound was administered as a bolus followed by infusion regimen. Two BT measurements were obtained prior to administration of test compound and three BT measurements accomplished serially after initiation of steady state infusion of test compound. BT measurements were allowed to continue for up to 30 minutes at which time it was stopped with application of silver nitrate. Blood samples were obtained just prior to all BT measurements and processed for measurement of hematological and coagulation parameters.

Chain of prothrombinase complex (P00742 235-488 limits assumed): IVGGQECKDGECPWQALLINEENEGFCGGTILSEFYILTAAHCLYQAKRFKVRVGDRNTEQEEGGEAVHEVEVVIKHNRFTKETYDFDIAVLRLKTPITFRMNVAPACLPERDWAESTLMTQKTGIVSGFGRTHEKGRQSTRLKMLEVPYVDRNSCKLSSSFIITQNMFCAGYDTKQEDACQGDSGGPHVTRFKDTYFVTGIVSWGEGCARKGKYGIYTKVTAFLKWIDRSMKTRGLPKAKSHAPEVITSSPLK
Chain of prothrombinase complex (P00742 41-179 limits assumed): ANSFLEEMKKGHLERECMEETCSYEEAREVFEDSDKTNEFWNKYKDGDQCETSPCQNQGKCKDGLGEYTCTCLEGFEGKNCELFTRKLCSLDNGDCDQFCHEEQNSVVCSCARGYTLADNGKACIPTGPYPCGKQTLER
Chain of prothrombinase complex (P12259 29-737 partner limits assumed): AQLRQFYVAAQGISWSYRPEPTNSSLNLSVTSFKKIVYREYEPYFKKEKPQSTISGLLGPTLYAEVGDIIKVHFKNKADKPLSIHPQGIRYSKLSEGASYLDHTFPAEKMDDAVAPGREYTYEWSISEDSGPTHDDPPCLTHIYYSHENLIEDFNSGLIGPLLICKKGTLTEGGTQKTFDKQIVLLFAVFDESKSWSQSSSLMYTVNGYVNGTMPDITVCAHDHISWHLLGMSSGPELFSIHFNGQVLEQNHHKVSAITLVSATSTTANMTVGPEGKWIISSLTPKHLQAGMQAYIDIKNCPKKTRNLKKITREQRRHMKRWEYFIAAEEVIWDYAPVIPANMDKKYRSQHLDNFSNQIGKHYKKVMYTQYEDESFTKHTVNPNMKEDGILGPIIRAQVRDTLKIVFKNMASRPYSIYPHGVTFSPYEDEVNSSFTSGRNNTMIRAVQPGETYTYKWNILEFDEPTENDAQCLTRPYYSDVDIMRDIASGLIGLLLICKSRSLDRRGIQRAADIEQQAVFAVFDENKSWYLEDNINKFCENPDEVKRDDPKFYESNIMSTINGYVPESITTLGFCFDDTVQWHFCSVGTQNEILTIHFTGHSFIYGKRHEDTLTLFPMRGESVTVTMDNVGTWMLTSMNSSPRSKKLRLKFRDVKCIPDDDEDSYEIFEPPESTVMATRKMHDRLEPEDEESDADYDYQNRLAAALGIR
Chain of prothrombinase complex (P12259 1574-2224 partner limits assumed): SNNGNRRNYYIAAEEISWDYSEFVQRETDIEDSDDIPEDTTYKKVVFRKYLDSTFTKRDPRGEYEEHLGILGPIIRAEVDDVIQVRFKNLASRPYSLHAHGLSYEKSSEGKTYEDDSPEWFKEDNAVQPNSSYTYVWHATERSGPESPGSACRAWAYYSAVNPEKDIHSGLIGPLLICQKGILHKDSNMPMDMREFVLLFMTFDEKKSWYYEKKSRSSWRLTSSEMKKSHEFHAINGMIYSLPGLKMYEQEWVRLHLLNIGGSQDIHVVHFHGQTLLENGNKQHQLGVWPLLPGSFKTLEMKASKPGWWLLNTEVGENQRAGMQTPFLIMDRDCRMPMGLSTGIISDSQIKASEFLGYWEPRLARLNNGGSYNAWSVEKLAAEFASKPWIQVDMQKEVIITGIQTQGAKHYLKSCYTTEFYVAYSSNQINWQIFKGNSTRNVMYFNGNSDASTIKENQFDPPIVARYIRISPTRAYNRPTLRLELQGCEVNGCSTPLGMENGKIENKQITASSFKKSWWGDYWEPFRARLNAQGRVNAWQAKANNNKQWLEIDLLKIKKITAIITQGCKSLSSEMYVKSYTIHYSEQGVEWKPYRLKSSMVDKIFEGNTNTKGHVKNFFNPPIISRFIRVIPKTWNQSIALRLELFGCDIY
Chain of factor Xa (P00742 235-488 limits assumed): as the sequence (P00742 235-488 limits assumed) above
Chain of factor Xa (P00742 41-179 limits assumed): as the sequence (P00742 41-179 limits assumed) above

**Q.** For `CN(C)C(=NCCCC[C@@H](NC(=O)OC(C)(C)C)C(=O)NCC(=O)N[C@H](C=O)CCCNC(=N)N)N(C)C` [Boc-D-Har((CH3)4)-Gly-Arg-H], which IC50 [1] is on record?
**A.** 5000 nM

**Q.** And the IC50 [2]?
**A.** 44000 nM

**Q.** With `N=C(N)NCCC[C@@H](C=O)NC(=O)CNC(=O)[C@@H](CCCNC(=N)N)NC(=O)CCc1ccccc1` [PhCH2 CH2 CO-D-Arg-Gly-Arg-H, 3-Phenylpropanoyl-D-Arg-Gly-Arg-H] (Hydrocinnamoyl-[dR]-Gly-Arg-aldehyde) as the compound, how does the IC50 [2] read?
**A.** 1700 nM

**Q.** Which IC50 [2] does the source give for `N=C(N)NCCC[C@@H](C=O)NC(=O)CNC(=O)[C@@H](CCCNC(=N)N)NC(=O)C(=O)O` [HOOCCO-D-Arg-Gly-Arg-H, Oxaloyl-D-Arg-Gly-Arg-H] here?
**A.** 63 nM

**Q.** Which IC50 [1] does the source give for `CC(C)(C)OC(=O)N[C@H](CCCNC(N)=O)C(=O)NCC(=O)N[C@H](C=O)CCCNC(=N)N` [Boc-D-Cit-Gly-Arg-H] (Boc-[dCit]-Gly-Arg-aldehyde) here?
**A.** 3000 nM

**Q.** Which Hct ([3]; 200 + 1.98 μg/kg + μg/kg/min) does the source give for `CC(C)(C)OC(=O)N[C@H](CCCNC(=N)N)C(=O)NCC(=O)N[C@H](C=O)CCCNC(=N)N` [Boc-D-Arg-Gly-Arg-H] (Boc-[dR]-Gly-Arg-aldehyde) here?
**A.** 36.9%

**Q.** And the PLT ([3]; 200 + 1.98 μg/kg + μg/kg/min)?
**A.** 393 ± 84 × 10^3 /μL

**Q.** And the RBC ([3]; 200 + 1.98 μg/kg + μg/kg/min)?
**A.** 5.69 ± 0.14 × 10^6 /μL

**Q.** What about the WBC ([3]; 200 + 1.98 μg/kg + μg/kg/min) of the same compound?
**A.** 4.45 ± 0.97 × 10^3 /μL

**Q.** What about the Hct ([3]; 600 + 5.94 μg/kg + μg/kg/min) of the same compound?
**A.** 35.3%

**Q.** What about the PLT ([3]; 600 + 5.94 μg/kg + μg/kg/min) of the same compound?
**A.** 442 ± 81 × 10^3 /μL

**Q.** What about the RBC ([3]; 600 + 5.94 μg/kg + μg/kg/min) of the same compound?
**A.** 5.74 ± 0.48 × 10^6 /μL

**Q.** What about the WBC ([3]; 600 + 5.94 μg/kg + μg/kg/min) of the same compound?
**A.** 3.87 ± 0.65 × 10^3 /μL

**Q.** What about the Hct ([3]; 1000 + 9.90 μg/kg + μg/kg/min) of the same compound?
**A.** 35.5%

**Q.** What about the PLT ([3]; 1000 + 9.90 μg/kg + μg/kg/min) of the same compound?
**A.** 375 ± 73 × 10^3 /μL

**Q.** What about the RBC ([3]; 1000 + 9.90 μg/kg + μg/kg/min) of the same compound?
**A.** 5.71 ± 0.28 × 10^6 /μL

**Q.** What about the WBC ([3]; 1000 + 9.90 μg/kg + μg/kg/min) of the same compound?
**A.** 5.09 ± 1.61 × 10^3 /μL

**Q.** What about the Hct ([3]; 1500 + 14.85 μg/kg + μg/kg/min) of the same compound?
**A.** 36.0%

**Q.** And the PLT ([3]; 1500 + 14.85 μg/kg + μg/kg/min)?
**A.** 433 ± 22 × 10^3 /μL

**Q.** What about the RBC ([3]; 1500 + 14.85 μg/kg + μg/kg/min) of the same compound?
**A.** 5.80 ± 0.50 × 10^6 /μL

**Q.** What about the WBC ([3]; 1500 + 14.85 μg/kg + μg/kg/min) of the same compound?
**A.** 4.82 ± 1.01 × 10^3 /μL

**Q.** What about the “effects on hematological parameters as compared to saline controls” value ([3]; all dose regimens) of the same compound?
**A.** no significant effects

**Q.** What about the “antithrombotic efficacy in the rabbit venous thrombosis model” value ([3]; bolus + infusion, dose range) of the same compound?
**A.** demonstrated antithrombotic efficacy at the higher doses evaluated

**Q.** What about the “average increase in PT” value [4] of the same compound?
**A.** 1.07 fold

**Q.** What about the “average increase in aPTT” value [4] of the same compound?
**A.** 1.61 fold
